Values after ≈ are worked out from the molar mass of the structure shown.
What was measured:
Type in all cases: cell-based
[1] = system: Aspergillus MF 5669; assay: Antifungal inhibitor dilution assay in microtiter format (filamentous fungi); conditions: MF5669, lowest concentration to prevent growth, read-out: Minimum Inhibitory Concentration
Experimental: (§1) The compounds are particularly active towards filamentous fungi and yeasts including Candida albicans and Cryptococcus neoformans. The sensitivity of filamentous fungi and yeast is determined using inhibitor dilution assays in microtiter format. The compounds are dissolved in DMSO at 2 mg/ml and serially diluted in 0.1M phosphate buffer, pH 7.0 in the microtiter dish from 100 to 0.006 μg/ml. A standardized spore suspension for testing the filamentous fungi is prepared by inoculating Antibiotic Medium #3 containing 1.5% agar with spores such that 1.5×10^3 colony forming units are added per well. The microtiter wells are filled with 50 μof buffer containing compound and 50 μl of inoculated medium.
(§2) The sensitivity of yeasts is determined by inoculating yeast nitrogen base containing 1% dextrose (YNB/G) with aliquots of an overnight yeast culture grown in Yeast Morphology (YM) media at 35° C. and diluting in YNB/G to yield a final concentration of 1.5-7.5×10^3 colony forming units/well. To test the sensitivity of yeast, compound is solubilized in 10 percent aqueous DMSO at 2.56 mg/ml. The compound is diluted serially in YNB/G from 128 to 0.06 μg/ml and further diluted 1:10 in YNB/G. The wells are filled with 150 μl of media containing drug. The minimum inhibitory concentration (MIC) is defined as the lowest concentration to prevent growth after an incubation for 42 hours, at 28° C. for the filamentous fungi and 24 to 48 hours, at 35° for the yeasts.

[2] = system: Aspergillus MF 4839; assay: as above; conditions: MF4839, lowest concentration to prevent growth, read-out: Minimum Inhibitory Concentration
Experimental: as §1, §2

[3] = system: Aspergillus MF 5668; assay: as above; conditions: MF5668, lowest concentration to prevent growth, read-out: Minimum Inhibitory Concentration
Experimental: as §1, §2

[4] = system: Aspergillus MF 0383; assay: as above; conditions: MF0383, lowest concentration to prevent growth, read-out: Minimum Inhibitory Concentration
Experimental: as §1, §2

[5] = system: Candida MY 1750; assay: Antifungal inhibitor dilution assay in microtiter format (yeasts); conditions: MY1750, lowest concentration to prevent growth, read-out: Minimum Inhibitory Concentration
Experimental: as §1, §2

[6] = system: Sachromyces MY 1976; assay: as above; conditions: lowest concentration to prevent growth, read-out: Minimum Inhibitory Concentration
Experimental: as §1, §2

[7] = system: Candida MY 1028; assay: as above; conditions: MY1028, lowest concentration to prevent growth, read-out: Minimum Inhibitory Concentration
Experimental: as §1, §2

[8] = system: Candida MY 1055; assay: as above; conditions: MY1055, lowest concentration to prevent growth, read-out: Minimum Inhibitory Concentration
Experimental: as §1, §2

[9] = system: Candida MY 1019; assay: as above; conditions: MY1019, lowest concentration to prevent growth, read-out: Minimum Inhibitory Concentration
Experimental: as §1, §2

[10] = system: Cryptococcus MY 2061; assay: as above; conditions: MY2061, lowest concentration to prevent growth, read-out: Minimum Inhibitory Concentration
Experimental: as §1, §2

[11] = system: Cryptococcus MY 1051; assay: as above; conditions: MY1051, lowest concentration to prevent growth, read-out: Minimum Inhibitory Concentration
Experimental: as §1, §2

[12] = system: Candida MY 1012; assay: as above; conditions: MY1012, lowest concentration to prevent growth, read-out: Minimum Inhibitory Concentration
Experimental: as §1, §2

[13] = system: Candida MY 1010; assay: as above; conditions: MY1010, lowest concentration to prevent growth, read-out: Minimum Inhibitory Concentration
Experimental: as §1, §2

[14] = system: Cryptococcus MY 1146; assay: as above; conditions: MY1146, lowest concentration to prevent growth, read-out: Minimum Inhibitory Concentration
Experimental: as §1, §2

[15] = system: Candida MY 2099; assay: as above; conditions: MY2099, lowest concentration to prevent growth, read-out: Minimum Inhibitory Concentration
Experimental: as §1, §2

[16] = system: Cryptococcus MY 2062; assay: as above; conditions: MY2062, lowest concentration to prevent growth, read-out: Minimum Inhibitory Concentration
Experimental: as §1, §2

For `C=C(CC[C@]12OC[C@@](O)(C(=O)O)[C@](C(=O)O)(O1)[C@H](OC(=O)/C=C/[C@@H](C)C[C@@H](C)CC)[C@H]2O)[C@@H](OC(C)=O)[C@H](C)Cc1ccccc1` [Zaragozic Acid A-3-Descarboxy, (1S,4S,5R,6R,7R)-1-[(4S)-acetoxy-3-methylene-(5R)-methyl-6-phenyl]hexyl-4,6,7-trihydroxy-6-O-((4S),(6S)-dimethyl-2-octenoyl)-2,8-dioxabicyclo-[3.2.1]octane-4,5-dicarboxylic acid], the MIC [1] was 8 µg/mL (≈ 12.4 µM), the MIC [2] was 8 µg/mL (≈ 12.4 µM) and the MIC [3] was 32 µg/mL (≈ 49.5 µM). For the same compound, the MIC [4] was 2 µg/mL (≈ 3.09 µM), the MIC [5] was 64 µg/mL (≈ 99 µM) and the MIC [6] was > 128 µg/mL. The MIC [7] was 32 µg/mL (≈ 49.5 µM), the MIC [8] was 64 µg/mL (≈ 99 µM) and the MIC [9] was > 128 µg/mL. It also gave an MIC [10] of 4 µg/mL (≈ 6.18 µM), an MIC [11] of 0.25 µg/mL (≈ 0.387 µM) and an MIC [12] of 16 µg/mL (≈ 24.7 µM). The MIC [13] was 64 µg/mL (≈ 99 µM), the MIC [14] was 2 µg/mL (≈ 3.09 µM) and the MIC [15] was > 128 µg/mL. For the same compound, the MIC [16] was 1 µg/mL (≈ 1.55 µM).

Work on `C=C(CC[C@]12OC[C@@](O)(C(=O)OCOC(=O)C(C)(C)C)[C@](C(=O)O)(O1)[C@H](OC(=O)/C=C/[C@@H](C)C[C@@H](C)CC)[C@H]2O)[C@@H](OC(C)=O)[C@H](C)Cc1ccccc1` [Zaragozic acid A-3-descarboxy-4-methyl pivalate ester] yielded an MIC [1] of 32 µg/mL (≈ 42.1 µM), an MIC [2] of 32 µg/mL (≈ 42.1 µM) and an MIC [3] of 32 µg/mL (≈ 42.1 µM). The MIC [4] was 1 µg/mL (≈ 1.31 µM), the MIC [5] was > 128 µg/mL and the MIC [6] was > 128 µg/mL. For the same compound, the MIC [7] was > 128 µg/mL, the MIC [8] was > 128 µg/mL and the MIC [9] was > 128 µg/mL. It also gave an MIC [10] of 64 µg/mL (≈ 84.1 µM), an MIC [11] of 2 µg/mL (≈ 2.63 µM) and an MIC [12] of 16 µg/mL (≈ 21 µM). For the same compound, the MIC [13] was > 128 µg/mL, the MIC [14] was 8 µg/mL (≈ 10.5 µM) and the MIC [15] was > 128 µg/mL. For the same compound, the MIC [16] was 8 µg/mL (≈ 10.5 µM).

Reference: patent US5258401A, “Cholesterol lowering compounds” (Merck & Co., Inc., priority 1992, dated 1993)
